In this assay the target is T1, POLγ W748S + E1143G (Homo sapiens, UniProt P54098, E1143G/W748S).
T1 sequence (P54098 1-1239 W748S/E1143G): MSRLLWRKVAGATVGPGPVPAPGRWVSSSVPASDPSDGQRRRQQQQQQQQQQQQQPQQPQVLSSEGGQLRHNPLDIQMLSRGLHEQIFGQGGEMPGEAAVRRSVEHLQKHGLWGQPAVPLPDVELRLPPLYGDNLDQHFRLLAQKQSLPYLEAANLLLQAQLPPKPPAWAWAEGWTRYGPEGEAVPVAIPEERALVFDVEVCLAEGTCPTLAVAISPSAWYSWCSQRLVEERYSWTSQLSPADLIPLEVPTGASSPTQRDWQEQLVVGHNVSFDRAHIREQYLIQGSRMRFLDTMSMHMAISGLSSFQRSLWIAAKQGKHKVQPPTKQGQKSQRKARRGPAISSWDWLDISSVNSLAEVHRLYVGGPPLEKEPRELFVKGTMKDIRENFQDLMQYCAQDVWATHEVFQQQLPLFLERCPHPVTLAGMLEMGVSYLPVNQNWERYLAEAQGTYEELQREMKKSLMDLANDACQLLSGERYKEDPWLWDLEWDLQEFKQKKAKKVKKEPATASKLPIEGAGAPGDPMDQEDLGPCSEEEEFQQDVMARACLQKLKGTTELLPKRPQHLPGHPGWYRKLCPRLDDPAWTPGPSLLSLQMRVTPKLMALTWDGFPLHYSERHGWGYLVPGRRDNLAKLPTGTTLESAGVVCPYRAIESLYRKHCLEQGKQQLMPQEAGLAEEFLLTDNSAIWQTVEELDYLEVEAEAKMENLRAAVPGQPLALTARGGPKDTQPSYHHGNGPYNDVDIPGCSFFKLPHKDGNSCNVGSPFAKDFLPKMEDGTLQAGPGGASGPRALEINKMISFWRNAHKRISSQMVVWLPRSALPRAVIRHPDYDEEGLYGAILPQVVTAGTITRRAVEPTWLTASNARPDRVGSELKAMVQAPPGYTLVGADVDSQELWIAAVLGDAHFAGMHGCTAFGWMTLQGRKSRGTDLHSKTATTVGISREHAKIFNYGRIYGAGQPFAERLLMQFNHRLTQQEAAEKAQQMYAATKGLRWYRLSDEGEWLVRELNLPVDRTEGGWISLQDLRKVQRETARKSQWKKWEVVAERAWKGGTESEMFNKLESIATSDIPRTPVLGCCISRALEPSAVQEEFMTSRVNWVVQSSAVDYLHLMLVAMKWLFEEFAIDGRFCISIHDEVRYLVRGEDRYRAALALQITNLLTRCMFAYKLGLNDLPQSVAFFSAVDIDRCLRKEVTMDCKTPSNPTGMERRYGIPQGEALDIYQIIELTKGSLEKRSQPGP
T1 sequence (Q9UHN1 1-485 partner): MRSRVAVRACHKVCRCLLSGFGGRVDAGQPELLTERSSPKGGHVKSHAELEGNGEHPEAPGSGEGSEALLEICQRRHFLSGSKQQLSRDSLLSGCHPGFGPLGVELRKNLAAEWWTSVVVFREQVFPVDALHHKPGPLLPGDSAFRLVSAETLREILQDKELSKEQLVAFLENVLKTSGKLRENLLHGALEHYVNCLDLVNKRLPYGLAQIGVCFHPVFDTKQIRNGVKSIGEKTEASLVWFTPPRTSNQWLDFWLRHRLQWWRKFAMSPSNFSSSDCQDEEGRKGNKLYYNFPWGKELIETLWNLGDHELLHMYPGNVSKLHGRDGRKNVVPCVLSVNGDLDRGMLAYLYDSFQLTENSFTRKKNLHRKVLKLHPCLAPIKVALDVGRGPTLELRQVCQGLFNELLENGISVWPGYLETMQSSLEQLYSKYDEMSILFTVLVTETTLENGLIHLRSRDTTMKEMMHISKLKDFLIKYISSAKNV
Briefly: DNA polymerization assay, W748S + E1143G mutant. It counts as biochemical. The conditions noted are these: stimulation of polymerase activity, primed M13mp18 ssDNA, 37° C. 2 hours.
The AC50 is the midpoint of the concentration-response curve, whichever way the signal moves. In the case of `Cc1cc(S(=O)(=O)Nc2cccc(-c3ncc(C4CC4)s3)c2)c(C)cc1Cl` [Example 76, 4-chloro-N-(3-(5-cyclopropylthiazol-2-yl)phenyl)-2,5-dimethylbenzenesulfonamide], the AC50 was 6000 nM. With `Cc1csc(-c2ccccc2NS(=O)(=O)c2cc(C)c(Cl)cc2C)n1` [Example 80, 4-chloro-2,5-dimethyl-N-(2-(4-methylthiazol-2-yl)phenyl)benzenesulfonamide] the figure was > 100000 nM; with `Cc1cc(S(=O)(=O)Nc2csc(-c3ccccc3)n2)c(C)cc1Cl` [Example 81, 4-chloro-2,5-dimethyl-N-(2-phenylthiazol-4-yl)benzenesulfonamide], 700 nM. As for `Cc1cc(S(=O)(=O)Nc2cccc(-c3ncc(CN(C)C)s3)c2)c(C)cc1Cl` [Example 87, 4-chloro-N-(3-(5-((dimethylamino)methyl)thiazol-2-yl)phenyl)-2,5-dimethylbenzenesulfonamide], the figure is 5000 nM. For `Cc1cc(S(=O)(=O)Nc2cccc(-c3ncc(CO)s3)c2)c(C)cc1Cl` [Example 89, 4-chloro-N-(3-(5-(hydroxymethyl)thiazol-2-yl)phenyl)-2,5-dimethylbenzenesulfonamide], the AC50 stood at 800 nM. As for `Cc1cc(S(=O)(=O)Nc2csc(-c3ccnn3C)n2)c(C)cc1Cl` [Example 182, 4-chloro-2,5-dimethyl-N-(2-(1-methyl-1H-pyrazol-5-yl)thiazol-4-yl)benzenesulfonamide], the figure is 1000 nM.

For the origin of these results see patent US20260138961A1, “MODULATORS OF MITOCHONDRIAL DNA REPLICATION” (Pretzel Therapeutics, Inc., priority 2022, published 2026).
